Source: article PMC7827406, “Structure–Activity Relationship (SAR) Study of Spautin-1 to Entail the Discovery of Novel NEK4 Inhibitors” (International Journal of Molecular Sciences, 2021)
Like-named read-outs stand apart in the source and are kept apart here.

What was measured:
Test in all cases: biochemical
Design in all cases: Eurofins KinaseProfiler full panel at Km ATP, residual kinase activity (%) relative to DMSO
[1] = biological target: T1, LATS1(h) (Homo sapiens, UniProt O95835)
T1 sequence (O95835 1-1130): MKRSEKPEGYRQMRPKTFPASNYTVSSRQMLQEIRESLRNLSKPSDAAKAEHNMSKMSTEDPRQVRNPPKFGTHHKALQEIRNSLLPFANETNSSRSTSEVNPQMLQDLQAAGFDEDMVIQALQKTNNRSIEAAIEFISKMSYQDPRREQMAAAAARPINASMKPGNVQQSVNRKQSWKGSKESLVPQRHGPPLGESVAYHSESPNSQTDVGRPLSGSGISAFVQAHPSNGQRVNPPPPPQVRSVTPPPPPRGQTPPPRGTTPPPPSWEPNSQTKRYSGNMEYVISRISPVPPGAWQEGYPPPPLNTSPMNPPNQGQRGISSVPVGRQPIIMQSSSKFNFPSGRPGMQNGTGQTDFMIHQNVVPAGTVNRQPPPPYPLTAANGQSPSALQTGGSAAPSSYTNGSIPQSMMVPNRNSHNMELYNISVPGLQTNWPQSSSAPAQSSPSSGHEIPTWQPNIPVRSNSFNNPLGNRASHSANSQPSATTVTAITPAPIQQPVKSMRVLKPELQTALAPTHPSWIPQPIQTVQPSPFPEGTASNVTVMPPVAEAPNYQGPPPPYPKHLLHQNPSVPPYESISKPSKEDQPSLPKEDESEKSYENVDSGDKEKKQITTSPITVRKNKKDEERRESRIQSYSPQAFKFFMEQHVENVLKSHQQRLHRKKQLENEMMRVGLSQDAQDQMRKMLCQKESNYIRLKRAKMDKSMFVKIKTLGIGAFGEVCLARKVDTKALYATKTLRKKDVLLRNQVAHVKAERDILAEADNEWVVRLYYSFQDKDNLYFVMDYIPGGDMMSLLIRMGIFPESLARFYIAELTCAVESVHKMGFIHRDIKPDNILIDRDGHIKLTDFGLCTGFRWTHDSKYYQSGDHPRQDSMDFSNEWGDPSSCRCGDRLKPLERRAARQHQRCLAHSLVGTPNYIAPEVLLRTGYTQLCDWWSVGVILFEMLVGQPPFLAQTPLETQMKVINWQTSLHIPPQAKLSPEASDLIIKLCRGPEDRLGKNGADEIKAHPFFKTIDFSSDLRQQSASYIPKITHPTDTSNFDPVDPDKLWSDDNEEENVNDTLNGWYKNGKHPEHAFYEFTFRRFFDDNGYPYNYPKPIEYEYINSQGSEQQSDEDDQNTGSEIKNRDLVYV
Procedure, shortened: (§1)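 Compounds screened at 10 µM in radiometric kinase activity assays at Km ATP, reported as remaining kinase activity (%). A KINOMEscan competition-binding screen at 10 µM measured DNA-tagged kinase retained on immobilized active-site ligand by qPCR.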

[2] = biological target: T2, EphB2(h) (Homo sapiens, UniProt P29323)
T2 sequence (P29323 1-1055): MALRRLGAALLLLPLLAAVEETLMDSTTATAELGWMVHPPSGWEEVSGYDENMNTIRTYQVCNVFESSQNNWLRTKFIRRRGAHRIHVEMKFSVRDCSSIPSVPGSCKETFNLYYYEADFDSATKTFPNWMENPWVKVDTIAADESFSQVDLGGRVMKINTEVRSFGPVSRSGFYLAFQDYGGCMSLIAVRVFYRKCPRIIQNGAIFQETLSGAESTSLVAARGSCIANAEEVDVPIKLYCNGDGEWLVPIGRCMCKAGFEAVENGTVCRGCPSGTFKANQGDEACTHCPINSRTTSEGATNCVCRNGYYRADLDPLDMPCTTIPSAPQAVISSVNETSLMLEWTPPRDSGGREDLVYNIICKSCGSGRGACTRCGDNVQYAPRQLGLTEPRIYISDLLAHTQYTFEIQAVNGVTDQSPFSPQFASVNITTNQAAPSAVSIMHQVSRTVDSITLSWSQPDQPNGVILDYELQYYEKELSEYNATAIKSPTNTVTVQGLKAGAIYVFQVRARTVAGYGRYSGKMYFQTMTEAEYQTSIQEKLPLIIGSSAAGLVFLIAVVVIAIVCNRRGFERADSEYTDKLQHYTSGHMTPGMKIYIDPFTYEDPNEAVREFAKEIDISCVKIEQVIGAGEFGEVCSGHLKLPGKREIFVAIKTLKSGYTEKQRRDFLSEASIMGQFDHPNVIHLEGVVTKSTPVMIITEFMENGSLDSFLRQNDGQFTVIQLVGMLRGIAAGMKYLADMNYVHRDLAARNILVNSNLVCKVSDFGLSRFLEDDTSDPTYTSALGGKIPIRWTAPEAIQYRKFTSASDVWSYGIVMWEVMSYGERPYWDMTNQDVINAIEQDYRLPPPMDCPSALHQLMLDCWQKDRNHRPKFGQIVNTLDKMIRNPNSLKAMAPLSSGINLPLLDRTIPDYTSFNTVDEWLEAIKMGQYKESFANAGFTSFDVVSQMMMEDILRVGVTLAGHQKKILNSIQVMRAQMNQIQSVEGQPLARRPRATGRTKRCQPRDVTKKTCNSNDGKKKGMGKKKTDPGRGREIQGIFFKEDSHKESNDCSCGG
Procedure, shortened: as §1

[3] = biological target: T3, NIM1(h) (Homo sapiens, UniProt Q8IY84)
T3 construct: gene NIM1K
Procedure, shortened: as §1

[4] = biological target: CSK(h) (Homo sapiens, UniProt P41240)
Procedure, shortened: as §1

[5] = biological target: T4, Aurora-B(h) (Homo sapiens, UniProt Q96GD4)
T4 construct: gene AURKB
Procedure, shortened: as §1

[6] = read-out: Residual activity (%) 5ay
[7] = read-out: Residual activity (%) Spautin-1 5aa
[8] = read-out: Residual activity (%) 5at
[9] = read-out: Residual activity (%) 5as

T3 sequence (Q8IY84 whole entry): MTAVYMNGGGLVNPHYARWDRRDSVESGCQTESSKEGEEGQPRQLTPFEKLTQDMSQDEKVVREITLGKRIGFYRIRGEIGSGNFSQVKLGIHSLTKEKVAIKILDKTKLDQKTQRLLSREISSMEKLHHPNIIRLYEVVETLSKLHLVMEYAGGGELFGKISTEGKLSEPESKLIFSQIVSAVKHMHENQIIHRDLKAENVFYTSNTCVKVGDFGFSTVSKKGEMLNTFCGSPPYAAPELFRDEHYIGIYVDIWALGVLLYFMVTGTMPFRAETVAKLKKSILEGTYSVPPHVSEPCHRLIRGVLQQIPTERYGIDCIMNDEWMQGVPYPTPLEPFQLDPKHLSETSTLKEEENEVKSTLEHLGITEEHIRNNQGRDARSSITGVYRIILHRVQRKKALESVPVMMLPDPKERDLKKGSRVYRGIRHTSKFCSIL
Sequence of CSK(h) (P41240 whole entry): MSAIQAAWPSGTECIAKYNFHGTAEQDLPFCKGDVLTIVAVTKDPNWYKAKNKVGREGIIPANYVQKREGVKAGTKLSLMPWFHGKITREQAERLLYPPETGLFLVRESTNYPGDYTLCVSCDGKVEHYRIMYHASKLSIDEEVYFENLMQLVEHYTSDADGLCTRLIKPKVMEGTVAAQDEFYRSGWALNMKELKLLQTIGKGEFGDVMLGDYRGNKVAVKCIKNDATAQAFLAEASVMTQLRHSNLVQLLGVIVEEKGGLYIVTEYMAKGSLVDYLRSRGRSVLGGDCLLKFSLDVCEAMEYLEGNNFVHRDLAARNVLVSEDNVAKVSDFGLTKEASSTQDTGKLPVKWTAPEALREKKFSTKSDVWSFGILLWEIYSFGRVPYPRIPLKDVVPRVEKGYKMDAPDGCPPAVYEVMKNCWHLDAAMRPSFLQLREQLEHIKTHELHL
T4 sequence (Q96GD4 whole entry): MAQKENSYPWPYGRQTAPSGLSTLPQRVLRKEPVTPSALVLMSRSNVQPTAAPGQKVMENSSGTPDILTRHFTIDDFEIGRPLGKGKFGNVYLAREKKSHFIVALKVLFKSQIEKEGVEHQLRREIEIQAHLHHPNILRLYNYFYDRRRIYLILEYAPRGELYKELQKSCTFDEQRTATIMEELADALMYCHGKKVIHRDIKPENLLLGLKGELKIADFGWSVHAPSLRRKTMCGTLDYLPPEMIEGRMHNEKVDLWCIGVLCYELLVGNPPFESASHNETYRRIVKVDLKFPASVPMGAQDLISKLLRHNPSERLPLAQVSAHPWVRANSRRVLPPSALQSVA

`COc1ccc2ncnc(Nc3cccc(F)c3)c2c1` [5ay, N-(3-Fluorophenyl)-6-Methoxy-4-Quinazolinamine] was tested. Which remaining activity at 10 µM [1, 6] did it give?
The remaining activity at 10 µM was 79%.

What about the remaining activity at 10 µM [2, 6] of the same molecule?
The remaining activity at 10 µM was 97%.

What about the remaining activity at 10 µM [3, 6] of the same molecule?
The remaining activity at 10 µM was 97%.

And the remaining activity at 10 µM [4, 6]?
The remaining activity at 10 µM was 91%.

And the remaining activity at 10 µM [5, 6]?
Its remaining activity at 10 µM is 59%.

Which remaining activity at 10 µM [1, 7] does the source give for `Fc1ccc(CNc2ncnc3ccc(F)cc23)cc1` [5aa, 6-Fluoro-N-(4-fluorobenzyl)-4-Quinazolinamine] here?
Its remaining activity at 10 µM is 102%.

What about the remaining activity at 10 µM [2, 7] of the same molecule?
The remaining activity at 10 µM was 96%.

And the remaining activity at 10 µM [3, 7]?
The remaining activity at 10 µM was 108%.

And the remaining activity at 10 µM [4, 7]?
The remaining activity at 10 µM was 82%.

And the remaining activity at 10 µM [5, 7]?
The remaining activity at 10 µM was 85%.

How did the remaining activity at 10 µM [1, 8] turn out when `Fc1ccc2ncnc(NCCc3ccc(Cl)cc3)c2c1` [5at, N-[2-(4-Chlorophenyl)Ethyl]-6-Fluoro-4-Quinazolinamine] was run?
Its remaining activity at 10 µM is 83%.

What about the remaining activity at 10 µM [2, 8] of the same molecule?
Its remaining activity at 10 µM is 93%.

What about the remaining activity at 10 µM [3, 8] of the same molecule?
Its remaining activity at 10 µM is 110%.

What about the remaining activity at 10 µM [4, 8] of the same molecule?
Its remaining activity at 10 µM is 79%.

And the remaining activity at 10 µM [5, 8]?
The remaining activity at 10 µM was 48%.

For `Fc1ccc(CCNc2ncnc3ccc(F)cc23)cc1` [5as, 6-Fluoro-N-[2-(4-Fluorophenyl)Ethyl]-4-Quinazolinamine], which remaining activity at 10 µM [1, 9] is on record?
The remaining activity at 10 µM was 79%.

What about the remaining activity at 10 µM [2, 9] of the same molecule?
Its remaining activity at 10 µM is 82%.

What about the remaining activity at 10 µM [3, 9] of the same molecule?
Its remaining activity at 10 µM is 113%.

What about the remaining activity at 10 µM [4, 9] of the same molecule?
The remaining activity at 10 µM was 85%.

What about the remaining activity at 10 µM [5, 9] of the same molecule?
Its remaining activity at 10 µM is 69%.
